Assay results taken from article PMC12345137 (mBio, 2025).
“And” between values parts separate entries of the source, which are not always exact repeats. Equal values may be shown once. Read-outs that look alike come from different tables or passages of the source. Positions of bridges follow the written chain, without caps; N, C: chain ends. Residues, ends and D or L forms follow the SMILES beside them.

Legend:
S. aureus agr-II = S. aureus agr-II (Staphylococcus aureus, UniProt O33587); test: cell-based
Procedure, shortened: (§1)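 Reporter strains, with YFP (S. aureus) or sGFP (S. epidermidis) under agr P3, were diluted 1:100 from overnight TSB cultures with antibiotic and exposed to peptides for 22–24 h at 37°C, shaking. Background-subtracted fluorescence was normalized to OD600 and expressed relative to peptide-free control wells; IC50 came from variable-slope non-linear regression.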

S. lugdunensis agr-I = S. lugdunensis agr-I (Staphylococcus lugdunensis, UniProt Q8VSW5); test: cell-based; settings: fluorescent reporter strain; peptides tested at 1000, 50, 2.5, 0.125 nM or in dose-response
Procedure, shortened: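 37°C, 1,000 rpm, 22–24 h in TSB + CAM or ERM (10 μg/mL); 1:5 serial peptide dilutions from 1 mM DMSO stocks; fluorescence (GFP ex 479/em 520, YFP ex 500/em 541) minus blank, ÷OD600, % of untreated control; IC50 by variable-slope fit.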

S. aureus (SA) agr-III [1] = settings: fluorescence, cited from earlier work
SA AgrC-III [2] = biological target: T1, SA AgrC-III (Staphylococcus aureus, UniProt O33590); test: β-Lactamase assay, reporter strain RN10829 (P2-agrA:P3-blaZ) with pagrC-III; type: cell-based
Procedure, shortened: (§2)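 Peptides at 10 μM–10 pM final were tested against 100 nM cognate AIP on early-exponential RN10829 cells that express the relevant AgrC from a plasmid and carry a chromosomal P3-blaZ reporter; incubation 1 h at 37°C. After freezing, β-lactamase was read as nitrocefin conversion at OD486, and IC50 came from non-linear regression of the rates.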

S. aureus (SA) agr-IV [3] = settings: fluorescence, cited from earlier work
SA AgrC-IV [4] = biological target: T2, SA AgrC-IV (Staphylococcus aureus, UniProt Q309Z2); test: β-Lactamase assay, reporter strain RN10829 (P2-agrA:P3-blaZ) with pagrC-IV; type: cell-based; settings: 100 nM cognate AIP; ± SEM; -b = no inhibition recorded at the highest AIP concentration tested; -a = only partial inhibition observed; this study (curves in Fig. S22)
Procedure, shortened: as §2

S. epidermidis agr-III = S. epidermidis agr-III (Staphylococcus epidermidis, UniProt Q8VSX2); test: cell-based; type: cell-based
Procedure, shortened: as §1

S. aureus agr-IV = S. aureus agr-IV (Staphylococcus aureus, UniProt Q309Z2); test: cell-based; type: cell-based; settings: fluorescent reporter strain; peptides tested at 1000, 50, 2.5, 0.125 nM or in dose-response
Procedure, shortened: as §1

S. aureus (SA) agr-IV [5] = tested on: S. aureus (SA) agr-IV; parameters: method as in ref (9) (a number printed in a supplementary file, which may have a reference list of its own: not looked up in the article's list); settings: HPLC d-toxin, ref (9); cited from earlier work
[6] = tested on: S. epidermidis (SE) agr-II; settings: fluorescence; from supernatant; ref (18); cited from earlier work
SA AgrC-II [7] = biological target: T3, SA AgrC-II (Staphylococcus aureus, UniProt O33587); test: β-Lactamase assay, reporter strain RN10829 (P2-agrA:P3-blaZ) with pagrC-II; type: cell-based; settings: 100 nM cognate AIP; ± SEM; -b = no inhibition recorded at the highest AIP concentration tested; -a = only partial inhibition observed; this study (curves in Fig. S20)
Procedure, shortened: as §2

[8] = tested on: S. epidermidis (SE) agr-I; settings: fluorescence, cited from earlier work
[9] = tested on: S. epidermidis (SE) agr-III; settings: fluorescence; from supernatant; ref (18); cited from earlier work
S. aureus (SA) agr-II [10] = tested on: S. aureus (SA) agr-II; parameters: method as in ref (9) (a number printed in a supplementary file, which may have a reference list of its own: not looked up in the article's list); settings: HPLC d-toxin; ref (9); cited from earlier work
S. aureus (SA) agr-II [11] = settings: fluorescence; ref (10); cited from earlier work
S. aureus (SA) agr-III [12] = tested on: S. aureus (SA) agr-III; parameters: method as in ref (9) (a number printed in a supplementary file, which may have a reference list of its own: not looked up in the article's list); settings: HPLC d-toxin; ref (9); cited from earlier work
S. aureus (SA) agr-I [13] = tested on: S. aureus (SA) agr-I; parameters: method as in ref (9) (a number printed in a supplementary file, which may have a reference list of its own: not looked up in the article's list); settings: HPLC d-toxin; ref (9); cited from earlier work
S. aureus (SA) agr-IV [14] = tested on: S. aureus (SA) agr-IV; parameters: method as in ref (5) (a number printed in a supplementary file, which may have a reference list of its own: not looked up in the article's list); settings: hemolysis; ref (5); cited from earlier work
[15] = tested on: S. epidermidis (SE) agr-I; parameters: method as in ref (9) (a number printed in a supplementary file, which may have a reference list of its own: not looked up in the article's list); settings: HPLC d-toxin, ref (9); cited from earlier work
SA AgrC-II [16] = biological target: T3, SA AgrC-II; settings: ± SEM, determined previously, ref (1), cited from earlier work
S. aureus (SA) agr-II [17] = settings: b-lactamase, cited from earlier work
S. aureus (SA) agr-III [18] = settings: b-lactamase, cited from earlier work
SA AgrC-IV [19] = biological target: T2, SA AgrC-IV; settings: 100 nM cognate AIP; ± SEM; -b = no inhibition recorded at the highest AIP concentration tested; determined previously; ref (1); read-out: IC50, SA AgrC-IV, b-lactamase assay; cited from earlier work
SA AgrC-I = SA AgrC-I (Staphylococcus aureus, UniProt O07911); settings: 100 nM cognate AIP; ± SEM; -b = no inhibition recorded at the highest AIP concentration tested; determined previously; ref (1); read-out: IC50, SA AgrC-I, b-lactamase assay; cited from earlier work
S. aureus (SA) agr-I [20] = settings: fluorescence; ref (5); cited from earlier work
S. aureus (SA) agr-I [21] = settings: b-lactamase, cited from earlier work
S. aureus (SA) agr-IV [22] = settings: b-lactamase; ref (4); cited from earlier work
S. aureus (SA) agr-III [23] = tested on: S. aureus (SA) agr-III; parameters: method as in ref (5) (a number printed in a supplementary file, which may have a reference list of its own: not looked up in the article's list); settings: hemolysis; ref (5); cited from earlier work
S. aureus (SA) agr-I [24] = tested on: S. aureus (SA) agr-I; parameters: method as in ref (5) (a number printed in a supplementary file, which may have a reference list of its own: not looked up in the article's list); settings: hemolysis; ref (5); cited from earlier work
SA AgrC-III [25] = biological target: T1, SA AgrC-III; settings: ± SEM, determined previously, ref (1), cited from earlier work
S. aureus (SA) agr-II [26] = tested on: S. aureus (SA) agr-II; parameters: method as in ref (5) (a number printed in a supplementary file, which may have a reference list of its own: not looked up in the article's list); settings: hemolysis; ref (5); cited from earlier work

T3 sequence (O33587 entry or part of it): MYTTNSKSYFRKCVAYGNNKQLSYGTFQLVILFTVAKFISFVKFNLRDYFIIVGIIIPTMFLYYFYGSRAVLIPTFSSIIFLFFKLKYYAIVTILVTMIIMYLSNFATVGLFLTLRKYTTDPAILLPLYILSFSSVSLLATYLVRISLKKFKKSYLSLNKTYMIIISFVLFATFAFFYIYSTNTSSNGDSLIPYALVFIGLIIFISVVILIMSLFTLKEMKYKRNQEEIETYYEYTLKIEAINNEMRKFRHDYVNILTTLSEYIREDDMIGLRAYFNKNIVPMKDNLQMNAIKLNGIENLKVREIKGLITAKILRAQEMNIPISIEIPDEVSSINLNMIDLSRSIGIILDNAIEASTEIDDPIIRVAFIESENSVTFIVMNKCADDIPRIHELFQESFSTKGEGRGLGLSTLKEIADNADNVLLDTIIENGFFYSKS
T1 sequence (O33590 entry or part of it): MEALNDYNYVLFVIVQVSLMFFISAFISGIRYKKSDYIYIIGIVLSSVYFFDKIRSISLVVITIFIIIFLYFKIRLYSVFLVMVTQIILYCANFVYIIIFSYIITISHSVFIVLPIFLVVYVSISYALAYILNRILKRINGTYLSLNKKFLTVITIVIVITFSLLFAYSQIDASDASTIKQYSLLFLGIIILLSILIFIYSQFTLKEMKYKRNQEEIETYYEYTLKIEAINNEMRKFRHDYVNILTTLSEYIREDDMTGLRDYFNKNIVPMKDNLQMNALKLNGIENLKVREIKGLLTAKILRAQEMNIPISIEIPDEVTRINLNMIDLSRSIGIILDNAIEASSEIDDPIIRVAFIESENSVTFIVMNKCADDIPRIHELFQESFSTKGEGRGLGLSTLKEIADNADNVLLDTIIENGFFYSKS
T2 sequence (Q309Z2 entry or part of it): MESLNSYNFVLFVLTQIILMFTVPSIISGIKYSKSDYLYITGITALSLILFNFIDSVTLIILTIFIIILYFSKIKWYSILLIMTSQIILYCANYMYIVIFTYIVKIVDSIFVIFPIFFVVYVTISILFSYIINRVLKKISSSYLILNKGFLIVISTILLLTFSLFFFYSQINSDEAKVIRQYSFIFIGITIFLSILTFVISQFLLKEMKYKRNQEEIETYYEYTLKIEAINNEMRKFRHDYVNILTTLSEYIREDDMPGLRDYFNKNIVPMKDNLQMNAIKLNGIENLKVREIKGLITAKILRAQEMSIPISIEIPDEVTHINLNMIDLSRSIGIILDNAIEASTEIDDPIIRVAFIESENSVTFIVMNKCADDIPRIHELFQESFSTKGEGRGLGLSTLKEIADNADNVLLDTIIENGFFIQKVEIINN
Chain of SA AgrC-I (O07911 entry or part of it): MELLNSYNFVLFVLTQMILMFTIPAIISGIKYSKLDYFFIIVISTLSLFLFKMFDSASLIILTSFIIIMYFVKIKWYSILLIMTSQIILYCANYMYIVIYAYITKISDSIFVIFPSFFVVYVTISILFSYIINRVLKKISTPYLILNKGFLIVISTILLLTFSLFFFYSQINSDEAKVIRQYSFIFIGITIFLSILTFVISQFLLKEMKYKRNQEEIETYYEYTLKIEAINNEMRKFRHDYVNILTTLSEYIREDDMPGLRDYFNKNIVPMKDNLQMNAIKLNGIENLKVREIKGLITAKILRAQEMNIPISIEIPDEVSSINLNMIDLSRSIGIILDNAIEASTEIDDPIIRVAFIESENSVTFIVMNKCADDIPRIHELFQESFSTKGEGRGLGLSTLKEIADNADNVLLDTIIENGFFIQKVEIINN
Chain of S. lugdunensis agr-I (Q8VSW5 entry or part of it): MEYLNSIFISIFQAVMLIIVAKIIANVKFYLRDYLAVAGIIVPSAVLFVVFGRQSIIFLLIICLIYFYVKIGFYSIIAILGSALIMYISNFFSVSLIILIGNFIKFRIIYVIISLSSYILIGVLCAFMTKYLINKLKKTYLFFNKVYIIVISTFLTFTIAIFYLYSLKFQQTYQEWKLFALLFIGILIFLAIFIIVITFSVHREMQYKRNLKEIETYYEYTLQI
Chain of S. epidermidis agr-III (Q8VSX2 entry or part of it): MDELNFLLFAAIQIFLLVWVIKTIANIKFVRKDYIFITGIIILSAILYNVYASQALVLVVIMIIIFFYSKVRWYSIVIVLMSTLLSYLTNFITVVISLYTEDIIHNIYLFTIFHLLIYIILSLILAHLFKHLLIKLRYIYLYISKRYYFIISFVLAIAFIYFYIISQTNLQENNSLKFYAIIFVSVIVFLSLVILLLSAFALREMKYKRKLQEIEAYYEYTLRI
Chain of S. aureus agr-II (O33587 entry or part of it): as the sequence (O33587 entry or part of it) above
Chain of S. aureus agr-IV (Q309Z2 entry or part of it): as the sequence (Q309Z2 entry or part of it) above

Compound: CC(C)[C@H](NC(=O)[C@H](CO)NC(=O)[C@@H](N)CC(=O)O)C(=O)N[C@H]1CSC(=O)[C@H](Cc2ccccc2)NC(=O)[C@H](Cc2ccc(O)cc2)NC(=O)[C@H](CO)NC(=O)[C@H](C)NC1=O [compound 5, S. epidermidis AIP-I] (H-DSVCASYF; thioester 4-C)
- IC50 (S. aureus agr-II): 0.858 µM
- QS interaction in words (inhibition / activation), S. lugdunensis agr-I (S. lugdunensis agr-I): no effect at 1000 nM
- IC50 (S. aureus (SA) agr-III [1]; ref (10)): 0.013 µM
- IC50 (SA AgrC-III [2]): > 1 µM
- IC50 (S. aureus (SA) agr-IV [3]; ref (10)): > 1 µM
- IC50, SA AgrC-IV, b-lactamase assay (SA AgrC-IV [4]): -b
- IC50 (S. epidermidis agr-III): 0.0086 ± 0.0007 µM
- QS interaction in words (inhibition / activation), S. aureus agr-IV (S. aureus agr-IV): no effect at 1000 nM
- inhibition at 1000 nM, SA agr-IV (S. aureus (SA) agr-IV [5]): no inhibition
- effect from supernatant (% inhibition, activation or no effect), SE agr-II [6]: ~ 90%
- IC50, SA AgrC-II, b-lactamase assay (SA AgrC-II [7]): -b
- effect from supernatant (% inhibition, activation or no effect), SE agr-I ([8]; from supernatant, ref (18)): activation
- EC50 ([8]; ref (11)): 0.196 µM
- effect from supernatant (% inhibition, activation or no effect), SE agr-III [9]: ~ 90%
- IC50 (S. aureus (SA) agr-II [10]): 0.03 to 0.04 µM
- IC50 (S. aureus (SA) agr-II [11]): > 1 µM
- IC50 (S. aureus (SA) agr-III [12]): ~0.01 µM
- IC50 (S. aureus (SA) agr-I [13]): ~0.25 µM

Compound: S. aureus AIP-II [compound 2]
- IC50 (S. aureus (SA) agr-IV [14]): 0.00119 µM
- IC50 (S. aureus (SA) agr-III [1]; ref (5)): 0.00053 µM
- IC50 (S. aureus (SA) agr-IV [3]; ref (5)): 0.0004 µM
- inhibition at 1000 nM, SE agr-I [15]: no inhibition
- EC50 (SA AgrC-II [16]; read-out: EC50, SA AgrC-II, b-lactamase assay): 0.0037 ± 0.0005 µM
- EC50 (S. aureus (SA) agr-II [17]; ref (3)): 0.034 µM and 0.028 µM
- EC50 (S. aureus (SA) agr-II [17]; ref (4)): 0.03 µM
- EC50 (S. aureus (SA) agr-II [17]; ref (7)): 0.0409 µM
- IC50 (S. aureus (SA) agr-III [18]; ref (2)): 0.0032 ± 0.0013 µM
- IC50 (S. aureus (SA) agr-III [18]; ref (4)): 0.001 µM
- IC50 (SA AgrC-IV [19]): 0.23 ± 0.019 µM
- IC50 ([8]; ref (11)): 0.0629 µM
- IC50 (SA AgrC-I): 0.11 ± 0.012 µM
- IC50 (S. aureus (SA) agr-I [20]): 0.00162 µM
- IC50 (S. aureus (SA) agr-I [21]; ref (2)): 0.0029 ± 0.0012 µM
- IC50 (S. aureus (SA) agr-I [21]; ref (3)): 0.09 µM and 0.078 µM
- IC50 (S. aureus (SA) agr-I [21]; ref (4)): 0.04 µM
- IC50 (S. aureus (SA) agr-I [21]; ref (8)): 0.012 ± 0.0029 µM
- IC50 (S. aureus (SA) agr-IV [22]): 0.086 µM
- IC50 (S. aureus (SA) agr-III [23]): 0.00359 µM
- IC50 (S. aureus (SA) agr-I [24]): 0.00089 µM
- IC50 (SA AgrC-III [25]; 100 nM cognate AIP, -b = no inhibition recorded at the highest AIP concentration tested, read-out: IC50, SA AgrC-III, b-lactamase assay): 0.04 ± 0.015 µM

Compound: S. aureus AIP-III [compound 3]
- IC50 (S. aureus (SA) agr-IV [14]): 0.0238 µM
- inhibition at 1000 nM, SE agr-I [15]: no inhibition
- IC50 (SA AgrC-II [16]; 100 nM cognate AIP, -b = no inhibition recorded at the highest AIP concentration tested, read-out: IC50, SA AgrC-II, b-lactamase assay): 0.15 ± 0.063 µM
- IC50 (S. aureus (SA) agr-II [17]; ref (4)): 0.006 µM
- EC50 (S. aureus (SA) agr-III [18]; ref (4)): 0.026 µM
- EC50 (S. aureus (SA) agr-III [18]; ref (7)): 0.406 µM
- IC50 (S. aureus (SA) agr-II [26]): 0.00046 µM
- IC50 (SA AgrC-IV [19]): > 1 µM
- inhibition at 1000 nM, SE agr-I ([8]; at 1000 nM, ref (11)): no inhibition
- IC50 (SA AgrC-I): 0.12 ± 0.015 µM
- IC50 (S. aureus (SA) agr-I [20]): 0.00505 µM
- IC50 (S. aureus (SA) agr-I [21]; ref (4)): 0.07 µM
- IC50 (S. aureus (SA) agr-I [21]; ref (8)): 0.008 ± 0.0011 µM
- IC50 (S. aureus (SA) agr-IV [22]): 0.15 µM
- IC50 (S. aureus (SA) agr-I [24]): 0.00807 µM
- EC50 (SA AgrC-III [25]; read-out: EC50, SA AgrC-III, b-lactamase assay): 0.011 ± 0.001 µM
